Experimental data from paper PMC7442270, “Phase 3 Trial of a Small-volume Subcutaneous 6-Month Duration Leuprolide Acetate Treatment for Central Precocious Puberty” (The Journal of Clinical Endocrinology and Metabolism, 2020).

Experiment: clinical
Set-up: species or system children with CPP
Conditions: human, in vivo, sc, 45 mg
Description: All samples were processed by a central laboratory (Syneos Health [formerly […] Health Clinique Inc.], Canada). A validated bioanalytical LC-MS/MS method with an LLOD of 0.025 ng/mL was used to measure serum leuprolide concentrations.

CCNC(=O)[C@@H]1CCCN1C(=O)[C@H](CCCNC(=N)N)NC(=O)[C@H](CC(C)C)NC(=O)[C@@H](CC(C)C)NC(=O)[C@H](Cc1ccc(O)cc1)NC(=O)[C@H](CO)NC(=O)[C@H](Cc1c[nH]c2ccccc12)NC(=O)[C@H](Cc1c[nH]cn1)NC(=O)[C@@H]1CCC(=O)N1 [leuprolide]
Cmax: 212 ng/mL
level at 672 h: 0.63 ng/mL
AUC (burst phase): 938 ng·h/mL
AUC (plateau phase): 42300 ng·h/mL
Tmax (T max, burst phase (time at which the Cmax is observed)): 3.7 h
Tmax (Time after injection at which leuprolide levels peaked): 4 h
